{"source": "patent US12486246B2", "about": "“Replication protein A (RPA)-DNA interaction inhibitors” (THE TRUSTEES OF INDIANA UNIVERSITY, priority 2019, dated 2025)", "key": {"[1]": {"tested_on": "H460 cells", "assay": "Caspase 3/7 activation (CellEvent Caspase-3/7 Green)", "assay_type": "cell-based", "settings": "24 hours treatment", "protocol": "Apoptosis induction was determined by activation of Caspase 3 and 7 using the CellEvent™ Caspase-3/7 Green Detection Reagent (Invitrogen). H460 cells were plated at […] in black 96 well plates with clear bottoms (Costar) and incubated for 24 hours prior to treatments. Cells were treated with the indicated concentration of compound 43 or cisplatin for 24 hours. The vehicle (DMSO) concentration was held constant at 1% for compound 43 treatments. For caspase 3/7 detection, media was removed and replaced with PBS containing 5% FBS and 2 μM CellEvent™ Caspase-3/7 Green Detection Reagent. Cells were incubated at 37° C./5% CO2 for 1 hour and fluorescence intensity was measured in a BioTek Synergy H1 plate reader (excitation/emission 485/528). Images were captured with an Evos FL2 Auto microscope (Invitrogen) using a 10× objective."}, "[2]": {"tested_on": "A2780 epithelial ovarian cancer (EOC) cells", "assay": "Cell survival, single agent", "assay_type": "cell-based", "protocol": "(§1) Cell survival was determined by CCK-8 viability assay and/or clonogenic survival assay in 96 well plates or 24 well plates, respectively and combination index (CI) analysis of drug-drug interactions determined by Chou-Talalay analysis as we have previously described. • 1) CCK-8 metabolic assay: Cells were plated (2500 cells/well) in 96-well plate and allowed to grow for at least 18 hours in at 37° C. in the presence of 5% CO2 before treatment with inhibitor for 48 hours. CCK-8 solution (Dojindo) was added to 10% of the total media volume and after 1-4 hours of incubation absorbance at 450 nm was determined using BioTek® Synergy™ H1 hybrid multi-mode microplate reader • 2) Clonogenic survival assay: Cells were plated in a 24 well (20,000 cells/well) plate, incubated for at least 18 hours and then treated with inhibitor. […] Images of the stained colonies were captured with a Fuji LAS-3000 CCD system then counted using OpenCFU software. Viability is determined as a percent of vehicle controls and plotted versus drug concentration. • 3) Assessment of synergy via combination index (CI): In the combination index studies, cells (H460 or SKGT4) were treated with RPA inhibitor and Pt/etoposide/bleomycin/taxol/DDR inhibitor alone as well as the combination of both—the inhibitor and the DNA damaging chemotherapeutic agent/DDR inhibitor. […]"}, "[3]": {"tested_on": "GCT27 testicular cancer cells", "assay": "Cell survival, single agent", "assay_type": "cell-based", "protocol": "as §1"}, "[4]": {"molecular_target": "T1, RPA-AB construct (RPA70 AB domain) (Homo sapiens, UniProt P27694)", "T1 construct": "The DBD-A/B construct was expressed as a His6-RPA181-422 fusion protein; His6 (N); made in house; host or cells: E. coli BL21 (DE3)", "T1 sequence (P27694 181-422)": "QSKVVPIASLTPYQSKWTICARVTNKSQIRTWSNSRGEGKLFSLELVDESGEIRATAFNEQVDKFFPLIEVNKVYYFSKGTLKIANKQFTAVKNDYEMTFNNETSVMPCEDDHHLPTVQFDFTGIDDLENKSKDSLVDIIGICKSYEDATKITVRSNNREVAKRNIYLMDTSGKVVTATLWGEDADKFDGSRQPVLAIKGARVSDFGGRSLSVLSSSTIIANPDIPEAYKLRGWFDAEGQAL", "assay": "Differential scanning fluorimetry (DSF)", "assay_type": "binding", "protocol": "In order to probe the potential role of DNA intercalation as a mechanism for RPA inhibition, compounds 19, 23, 26, 27, 43 and 45 were analyzed using FID assay along with doxorubicin (Dox) as a positive control. […] In addition, direct binding of 9 derivatives to the target protein was assessed using a differential scan fluorimetry (DSF) assay. This assay assesses the melting profile of a protein at increasing temperatures via fluorescent dye binding. The direct interaction of a small molecule to the target protein can either increase or decrease the melting temperature (Tm) of the target depending on the specific protein and their interactions. […] Heparin sulfate, a known RPA interacting molecule often used in the purification of the protein was used as a control. […] (data not shown). […] (FIG. 1B).\nThe interaction of compound 43 with RPA-AB constructs was performed by differential scanning fluorimetry using GloMelt™ Dye (Biotum). […] Reactions were run in an ABI 7500 real time PCR machine with temperature increasing from 25° C. to 99° C. at a 2% ramp (˜40 minutes) and fluorescence of the reporter was measured on the SYBR® Green setting. […] Data was uploaded to TSA-CRAFT software and Tm calculated as described by Lee et al. Heparin was employed as a positive control of binding to the AB-box of RPA."}, "[5]": {"tested_on": "sonicated salmon sperm DNA", "assay": "Fluorescent intercalator displacement (FID) assay, SYBR-Green", "assay_type": "binding", "settings": "25 mM MOPS pH 6.5", "in_short": "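Displacement of SYBR-Green from sonicated salmon sperm DNA (8.29 ng/μL) in 25 mM MOPS pH 6.5 with compound at indicated concentrations; doxorubicin positive control. Fluorescence (Ex 485/Em 528 nm) read within 5 min of incubation.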"}, "[6]": {"tested_on": "H460 NSCLC cells", "assay": "Cell survival, CCK-8 metabolic assay, single agent", "assay_type": "cell-based", "protocol": "as §1"}}, "data": [{"smiles": "CCOc1ccc2cc(C3CC(c4ccc(I)cc4)=NN3C(=O)CCCC(=O)NCCCN3CCOCC3)c(Cl)nc2c1", "note": "(stereo not drawn) [Compound 43, 5-(5-(2-Chloro-7-ethoxyquinolin-3-yl)-3-(4-iodophenyl)-4,5-dihydro-1H-pyrazol-1-yl)-N-(3-morpholinopropyl)-5-oxopentanamide]", "values": [{"measurement": "caspase 3 and 7 activation", "setting": "[1]", "value": "potently activates caspase 3 and 7"}, {"measurement": "cytotoxicity as compared to H460 NSCLC cells", "setting": "[2]", "value": "increased cytotoxicity"}, {"measurement": "cytotoxicity as compared to H460 NSCLC cells", "setting": "[3]", "value": "increased cytotoxicity"}, {"measurement": "increase in Tm", "setting": "[4]", "value": 0.6, "unit": "°C"}, {"measurement": "DNA binding activity (displacement of SYBR-Green intercalator)", "setting": "[5]", "value": "No significant DNA binding activity"}, {"measurement": "cellular anticancer activity compared to compound 9", "setting": "[6]", "value": "increase in cellular anticancer activity"}]}]}
